Assay results reported in article doi:10.1101/2024.05.22.595443v1 (biorxiv, 2024).

Tests used:
PRMT5:MEP50 complex = PRMT5:MEP50 complex (Homo sapiens, UniProt O14744); assay: SPR; assay type: binding
EZH2 = EZH2 (Homo sapiens, UniProt Q15910); assay: SPR; assay type: binding
Sequence of EZH2 (Q15910 whole entry): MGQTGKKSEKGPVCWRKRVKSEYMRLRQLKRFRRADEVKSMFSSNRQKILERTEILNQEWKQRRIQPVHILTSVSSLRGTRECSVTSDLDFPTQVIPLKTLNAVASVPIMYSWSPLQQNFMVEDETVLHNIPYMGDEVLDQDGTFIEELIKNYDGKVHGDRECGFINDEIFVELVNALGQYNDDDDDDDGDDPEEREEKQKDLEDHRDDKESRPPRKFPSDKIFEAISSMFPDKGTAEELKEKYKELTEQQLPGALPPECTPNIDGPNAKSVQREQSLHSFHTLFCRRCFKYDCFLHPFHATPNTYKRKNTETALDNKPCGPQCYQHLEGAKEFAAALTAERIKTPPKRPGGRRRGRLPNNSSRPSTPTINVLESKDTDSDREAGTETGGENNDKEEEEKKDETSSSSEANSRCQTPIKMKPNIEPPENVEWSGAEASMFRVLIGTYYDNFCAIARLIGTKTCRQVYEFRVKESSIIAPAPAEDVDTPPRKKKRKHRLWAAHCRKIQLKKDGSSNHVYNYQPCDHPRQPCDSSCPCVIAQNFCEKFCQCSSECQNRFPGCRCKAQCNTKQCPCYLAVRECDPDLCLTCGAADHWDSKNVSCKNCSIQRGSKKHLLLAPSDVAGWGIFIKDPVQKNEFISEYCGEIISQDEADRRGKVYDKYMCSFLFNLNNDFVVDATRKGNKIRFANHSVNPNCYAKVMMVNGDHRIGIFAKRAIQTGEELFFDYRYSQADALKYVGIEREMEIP

Sequence of PRMT5:MEP50 complex (O14744 2-637): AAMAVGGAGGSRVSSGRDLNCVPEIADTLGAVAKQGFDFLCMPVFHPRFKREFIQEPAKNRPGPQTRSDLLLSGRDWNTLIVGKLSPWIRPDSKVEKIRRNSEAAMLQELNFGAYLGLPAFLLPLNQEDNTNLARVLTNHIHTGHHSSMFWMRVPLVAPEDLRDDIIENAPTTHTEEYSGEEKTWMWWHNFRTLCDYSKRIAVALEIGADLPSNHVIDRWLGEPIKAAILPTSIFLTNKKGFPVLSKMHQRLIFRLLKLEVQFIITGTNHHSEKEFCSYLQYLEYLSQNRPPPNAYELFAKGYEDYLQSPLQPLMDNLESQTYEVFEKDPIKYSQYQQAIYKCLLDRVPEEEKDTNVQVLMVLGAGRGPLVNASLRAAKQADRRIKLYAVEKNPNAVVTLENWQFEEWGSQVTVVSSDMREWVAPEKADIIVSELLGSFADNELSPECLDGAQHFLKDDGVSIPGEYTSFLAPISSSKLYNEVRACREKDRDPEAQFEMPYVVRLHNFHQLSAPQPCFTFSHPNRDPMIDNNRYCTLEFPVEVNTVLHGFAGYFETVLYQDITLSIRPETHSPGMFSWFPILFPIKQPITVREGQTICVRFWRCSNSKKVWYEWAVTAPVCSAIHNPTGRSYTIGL
Sequence of PRMT5:MEP50 complex (Q9BQA1 whole entry partner): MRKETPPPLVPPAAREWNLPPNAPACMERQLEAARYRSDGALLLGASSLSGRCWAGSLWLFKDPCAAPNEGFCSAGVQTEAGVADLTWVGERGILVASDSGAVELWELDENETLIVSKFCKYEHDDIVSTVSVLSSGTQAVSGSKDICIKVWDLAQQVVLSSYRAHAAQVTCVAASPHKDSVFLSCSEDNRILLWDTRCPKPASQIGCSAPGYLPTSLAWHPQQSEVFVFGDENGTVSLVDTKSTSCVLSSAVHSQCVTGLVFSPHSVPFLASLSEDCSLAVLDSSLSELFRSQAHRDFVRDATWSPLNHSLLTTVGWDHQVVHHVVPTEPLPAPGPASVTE

Kd (PRMT5:MEP50 complex): 65.4 µM
Kd (EZH2): 3.28 µM
Structure (SMILES): O=c1oc2c(O)c(O)cc3c(=O)oc4c(O)c(O)cc1c4c23 [Ellagic acid]
